According to patent US8835646B2, “Organic compounds” (Novartis AG, priority 2005, dated 2014):

What was measured:
aldosterone synthase = target: T1, aldosterone synthase (Homo sapiens, UniProt P19099); test: cellular aldosterone production in NCI-H295R cells stimulated with Ang II (RIA/SPA); assay type: cell-based; details: human adrenocortical carcinoma NCI-H295R cells, 1 μM Ang II, 24 hr
T1 construct: host or cells: NCI-H295R
T1 sequence (P19099 25-503): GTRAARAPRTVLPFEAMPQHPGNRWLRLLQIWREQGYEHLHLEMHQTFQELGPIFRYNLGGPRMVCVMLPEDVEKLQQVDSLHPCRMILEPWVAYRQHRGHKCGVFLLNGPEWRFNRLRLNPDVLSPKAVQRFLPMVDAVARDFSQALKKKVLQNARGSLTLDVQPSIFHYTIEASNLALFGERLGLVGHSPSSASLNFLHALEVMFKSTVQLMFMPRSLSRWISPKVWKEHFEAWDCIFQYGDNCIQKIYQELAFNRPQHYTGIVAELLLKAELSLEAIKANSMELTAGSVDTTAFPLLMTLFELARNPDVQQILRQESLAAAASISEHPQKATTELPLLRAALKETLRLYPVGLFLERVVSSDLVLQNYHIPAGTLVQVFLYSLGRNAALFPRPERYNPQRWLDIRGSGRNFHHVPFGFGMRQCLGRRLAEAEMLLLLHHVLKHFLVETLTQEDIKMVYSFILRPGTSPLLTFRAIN
Excerpt: (§1) Human adrenocortical carcinoma NCl-H295R cell line is obtained from American Type Culture Collection (Manassas, Va.). Insulin/transferrin/selenium (ITS)-A supplement (100×), DMEM/F-12, antibiotic/antimycotic (100×), and fetal calf serum (FCS) are purchased from Gibco (Grand Island, N.Y.). Anti-mouse PVT scintillation proximity assay (SPA) beads and NBS 96-well plates are obtained from Amersham (Piscataway, N.J.) and Corning (Acton, Mass.), respectively. Solid black 96-well flat bottom plates are purchased from Costar (Corning, N.Y.). Aldosterone and angiotensin (Ang II) are purchased from Sigma (St. Louis, Mo.). D-[1,2,6,7-^3H(N)]aldosterone was acquired from PerkinElmer (Boston, Mass.). Nu-serum was a product of BD Biosciences (Franklin Lakes, N.J.). The NADPH regenerating system, dibenzylfluorescein (DBF), and human aromatase Supersomes® are obtained from Gentest (Woburn, Mass.).
For in vitro measurement of aldosterone activity, human adrenocortical carcinoma NCI-H295R cells are seeded in NBS 96-well plates at a density of 25,000 cells/well in 100 μl of a growth medium containing DMEM/F12 supplemented with 10% FCS, 2.5% Nu-serum, 1 μg ITS/ml, and 1× antibiotic/antimycotic. The medium is changed after culturing for 3 days at 37° C. under an atmosphere of 5% CO2/95% air. On the following day, cells are rinsed with 100 μl of DMEM/F12 and incubated with 100 μl of treatment medium containing 1 μM Ang II and a compound at different concentrations in quadruplicate wells at 37° C. for 24 hr. At the end of incubation, 50 μl of medium is withdrawn from each well for measurement of aldosterone production by an RIA using mouse anti-aldosterone monoclonal antibodies.
Measurement of aldosterone activity can also be performed using a 96-well plate format. Each test sample is incubated with 0.02 μCi of D-[1,2,6,7-^3H(N)]aldosterone and 0.3 μg of anti-aldosterone antibody in phosphate-buffered saline (PBS) containing 0.1% Triton X-100, 0.1% bovine serum albumin, and 12% glycerol in a total volume of 200 μl at room temperature for 1 hr. Anti-mouse PVT SPA beads (50 μl) are then added to each well and incubated overnight at room temperature prior to counting in a Microbeta plate counter. The amount of aldosterone in each sample is calculated by comparing with a standard curve generated using known quantities of the hormone.
(§2) Full concentration-response curves of the test compound are performed at least 3 times. The IC50 values are derived using a non-linear least squares curve-fitting program from Microsoft XLfit.

human aromatase = target: T2, human aromatase (Homo sapiens, UniProt P11511); test: human aromatase assay (Supersomes, DBF substrate, fluorescence); assay type: biochemical; details: 10000 nM
T2 construct: purchased Gentest (Woburn, Mass.)
T2 sequence (P11511 1-503): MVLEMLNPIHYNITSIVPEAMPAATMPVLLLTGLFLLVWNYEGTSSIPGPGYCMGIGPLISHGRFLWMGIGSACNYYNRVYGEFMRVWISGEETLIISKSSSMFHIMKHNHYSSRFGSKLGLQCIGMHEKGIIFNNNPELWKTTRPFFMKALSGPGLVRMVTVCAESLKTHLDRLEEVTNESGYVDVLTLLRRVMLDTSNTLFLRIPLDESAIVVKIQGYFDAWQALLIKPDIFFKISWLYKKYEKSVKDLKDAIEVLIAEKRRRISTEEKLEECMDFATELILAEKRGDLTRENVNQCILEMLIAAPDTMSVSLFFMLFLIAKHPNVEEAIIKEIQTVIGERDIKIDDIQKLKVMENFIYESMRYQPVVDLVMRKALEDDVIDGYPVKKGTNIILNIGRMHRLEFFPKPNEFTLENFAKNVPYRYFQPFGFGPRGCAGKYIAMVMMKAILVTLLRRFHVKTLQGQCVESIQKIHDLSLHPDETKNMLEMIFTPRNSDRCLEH
Excerpt: as §1
To measure aromatase activity, the human aromatase assay is performed in 96-well flat bottom plates according to a published protocol (Stresser et al, 2000) with minor modifications. Briefly, 10 μl of an NADPH regenerating system containing 2.6 mM NADP^+, 6.6 mM glucose 6-phosphate, 6.6 mM MgCl2, and 0.8 U/ml glucose-6-phosphate dehydrogenase in 50 mM potassium phosphate, pH 7.4, is pre-incubated with the test compound at a desired concentration at 30° C. for 10 min in a total volume of 100 μl. Afterwards, 4 pmol of human aromatase, 20 μg of control microsomal protein, and 4 μM DBF in 100 μl of 50 mM potassium phosphate, pH 7.4, is added to each well and incubated at 30° C. for 90 min. The reaction is terminated by the addition of 75 μl of 2 N NaOH to each well. After 2 hr, the product, fluorescein, is measured by a fluorimeter using excitation and emission wavelengths of 485 and 538 nm, respectively.
as §2

Row | SMILES | IC50 (aldosterone synthase) | inhibition at 10 µM (human aromatase)
1 | C=CCC1(c2ccc(C#N)cc2Br)CCCCc2cncn21 (stereo not shown) [4-(5-Allyl-6,7,8,9-tetrahydro-5H-imidazo[1,5-a]azepin-5-yl)-3-bromobenzonitrile] | 32 nM | 97%
2 | Cc1noc(C)c1-c1cc(C#N)ccc1C1CCCCc2cncn21 (stereo not shown) [3-(3,5-Dimethylisoxazol-4-yl)-4-(6,7,8,9-tetrahydro-5H-imidazo[1,5-a]azepin-5-yl)benzonitrile] | 40 nM | 59%
3 | N#Cc1ccc(C2CCCCc3cncn32)c(-c2cccnc2)c1 (stereo not shown) [3-Pyridin-3-yl-4-(6,7,8,9-tetrahydro-5H-imidazo[1,5-a]azepin-5-yl)benzonitrile] | 35 nM | 97%
4 | N#Cc1ccc(C2CCCCc3cncn32)cc1Br (stereo not shown) [2-Bromo-4-(6,7,8,9-tetrahydro-5H-imidazo[1,5-a]azepin-5-yl)benzonitrile] | 23 nM | 100%
5 | N#Cc1ccc(C2(C(=O)N3CCCCC3)CCc3cncn32)c(Cl)c1 (stereo not shown) [3-Chloro-4-[5-(piperidine-1-carbonyl)-6,7-dihydro-5H-pyrrolo[1,2-c]imidazol-5-yl]benzonitrile] | 135 nM | 98%
6 | N#Cc1ccc(C2CCc3cncn32)c(N)c1 (stereo not shown) [3-Amino-4-(6,7-dihydro-5H-pyrrolo[1,2-c]imidazol-5-yl)benzonitrile] | 90 nM | 100%
7 | Cc1cc(C2CCc3cncn32)ccc1C#N (stereo not shown) [4-(6,7-Dihydro-5H-pyrrolo[1,2-c]imidazol-5-yl)-2-methylbenzonitrile] | 3 nM | 95%

Other lines, results leading:

Row | IC50 (aldosterone synthase) | inhibition at 10 µM (human aromatase) | SMILES
8 | 8 nM | 100% | C=Cc1cc(C2CCc3cncn32)ccc1C#N (stereo not shown) [4-(6,7-Dihydro-5H-pyrrolo[1,2-c]imidazol-5-yl)-2-vinylbenzonitrile]
9 | 45 nM | 96% | COC(=O)C1(c2ccc(C#N)cc2Cl)CCc2cncn21 (stereo not shown) [5-(2-Chloro-4-cyanophenyl)-6,7-dihydro-5H-pyrrolo[1,2-c]imidazole-5-carboxylic acid methyl ester]
10 | 93 nM | 88% | Fc1ccc(C2CCCc3cncn32)c(-c2ccsc2)c1 (stereo not shown) [5-(4-Fluoro-2-thiophen-3-yl-phenyl)-5,6,7,8-tetrahydroimidazo[1,5-a]pyridine]
11 | 113 nM | 98% | COC(=O)C1(c2cc(OC)c(C#N)cc2OC)CCc2cncn21 (stereo not shown) [5-(4-Cyano-2,5-dimethoxyphenyl)-6,7-dihydro-5H-pyrrolo[1,2-c]imidazole-5-carboxylic acid methyl ester]
12 | 57 nM | 85% | COc1cc(C#N)ccc1C1(C(=O)N(C)Cc2ccc(F)cc2)CCc2cncn21 (stereo not shown) [5-(4-Cyano-2-methoxyphenyl)-6,7-dihydro-5H-pyrrolo[1,2-c]imidazole-5-carboxylic acid (4-fluorobenzyl)methylamide]
13 | 6 nM | 100% | CCCCOC(=O)C1(c2ccc(C#N)cc2OC)CCc2cncn21 (stereo not shown) [5-(4-Cyano-2-methoxyphenyl)-6,7-dihydro-5H-pyrrolo[1,2-c]imidazole-5-carboxylic acid butyl ester]
14 | 83 nM | 100% | COc1cc(C#N)ccc1[C@@H]1C[C@@H](Cc2ccc(F)cc2)Cc2cncn21 (relative stereo) [trans-3-Methoxy-4-[7-(4-fluorobenzyl)-5,6,7,8-tetrahydroimidazo[1,5-a]pyridin-5-yl]benzonitrile]
15 | 159 nM | 100% | COc1ccc(C2CCc3cncn32)cc1F (stereo not shown) [5-(3-fluoro-4-methoxyphenyl)-6,7-dihydro-5H-pyrrolo[1,2-c]imidazole]
16 | 57 nM | 98% | Fc1ccc(C2CCCc3cncn32)c(-c2ccccc2)c1 (stereo not shown) [5-(5-Fluorobiphenyl-2-yl)-5,6,7,8-tetrahydroimidazo[1,5-a]pyridine]
17 | 2 nM | 91% | CC1CCCC(c2ccc(C#N)cc2-c2ccc(F)cc2)n2cncc21 (stereo not shown) [4′-Fluoro-6-(9-methyl-6,7,8,9-tetrahydro-5H-imidazo[1,5-a]azepin-5-yl)biphenyl-3-carbonitrile]
